# Measured values: patent US20250340543A1, “GPR84 ANTAGONISTS AND USES THEREOF” (Liminal BioSciences Limited, priority 2021, published 2025)
# Target: GPR84 (Homo sapiens (Human), UniProt Q9NQS5)
# Test: Gai biosensor BRET assay (GPR84-mediated activation of Gai, antagonist mode against agonist ZQ-16)
# Type: cell-based
# Details: HEK293 cells, 200 nmol/L GPR84 agonist ZQ-16, read-out: hGPR84 IC50
# Description: Background—The following assays can be used for determination of GPR84 activation in living HEK293 cells. […] The Gai biosensor consists of a Rluc8-tagged Gαi2 subunit, a GFP10-tagged Gγ2 subunit, and an untagged Gβ1. […] Moreover, signaling functions of GPCRs are tightly regulated by endocytosis, the targeting of receptors to endosomes and their sorting to lysosomes or recycling to the plasma membrane. […] Agonist stimulation of GPR84—Rluc8 leads to trafficking of the receptor to EEs, and ensuing increase of the donor concentration relative to the rGFP-FYVE acceptor anchored in the same cellular compartment, and thus results in an increase in BRET signal.
# Plasmids—The cDNA clones for human GPR84 receptor, human Gαi2, Gβ1, and Gγ2 were obtained from the cDNA Resource Center (www.cdna.org). GFP10 (F64L, S147P, S202F and H231L variant of Aequorea victoria Green Fluorescent Protein) gBlocks gene fragments (Integrated DNA Technologies, IA) and linker were inserted in frame at the N-terminus of human Gγ2. Rluc8 (A55T, C124A, S130A, K136R, A143M, M185V, M253L, and S287L variant of the Renilla renformis luciferase) gBlocks gene fragment was inserted with linkers in frame in between residues 91 and 92 of Gαi2 or at the C-terminus of GPR84. The FYVE domain from human endofin (residues Q739 to K806) attached in frame at the C terminus of a humanized Renilla GFP (rGFP), were synthesized as gBlocks gene fragments.
# Bioluminescence Resonance Energy Transfer (BRET) Measurement—HEK293 cells were transfected with GPR84—Rluc8 and rGFP-FYVE for the EEs trafficking biosensor or with GPR84, Gαi2—Rluc8, GFP10-Gγ2, and Gβ1 for the Gai biosensor. The following day, transiently transfected cells were seeded in 96-well white clear bottom microplates coated with poly-D-lysine and left in culture for 24 hours. Cells were washed once with Tyrode's buffer (140 mmol/L NaCl, 1 mmol/L CaCl2, 2.7 mmol/L KCl, 0.49 mmol/L MgCl2, 0.37 mmol/L NaH2PO4, 5.6 mmol/L glucose, 12 mmol/L NaHCO3, and 25 mmol/L HEPES, pH 7.5) before performing assays in Tyrode's buffer. Test compounds were incubated with cells for 5 (Gai) or 15 (EEs) minutes at 37° C. before addition of 200 nmol/L of the GPR84 agonist ZQ-16 (2-(Hexylthio)-6-hydroxy-4(3H)-pyrimidinone) for 5 minutes at room temperature (Gai) or 30 minutes at 37° C. (EEs). The Rluc8 substrate coelenterazine 400A (Prolume, Lakeside, AZ) was added at a final concentration of […] and BRET readings were collected using an Infinite M1000 microplate reader (Tecan, Morrisville, NC). BRET^2 readings between Rluc8 and GFP10 or rGFP were collected by sequential integration of the signals detected in the 370 to 450 nm (Rluc8) and 510 to 540 nm (GFP10, rGFP) windows. The BRET signal was calculated as the ratio of light emitted by acceptor (GFP10, rGFP) over the light emitted by donor (Rluc8). The values were corrected to net BRET by subtracting the background BRET signal obtained in cells transfected with Rluc8 constructs alone. Ligand-promoted net BRET values were calculated by subtracting vehicle-induced net BRET from ligand-induced net BRET.
# Sequence of GPR84 (Q9NQS5 whole entry): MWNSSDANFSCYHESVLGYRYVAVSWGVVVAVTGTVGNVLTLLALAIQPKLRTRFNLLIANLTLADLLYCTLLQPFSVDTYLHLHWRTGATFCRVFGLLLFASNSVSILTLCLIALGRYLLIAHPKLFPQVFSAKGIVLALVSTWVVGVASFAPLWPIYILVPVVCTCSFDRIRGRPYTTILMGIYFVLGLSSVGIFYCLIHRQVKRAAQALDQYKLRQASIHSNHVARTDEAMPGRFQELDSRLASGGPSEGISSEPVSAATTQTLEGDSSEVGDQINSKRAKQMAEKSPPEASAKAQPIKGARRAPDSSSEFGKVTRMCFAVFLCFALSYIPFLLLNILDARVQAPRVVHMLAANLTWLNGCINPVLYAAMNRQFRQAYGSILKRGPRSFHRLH
row,SMILES,IC50
1,Cc1cc(OC[C@H]2COCCO2)cc(=O)n1[C@H](C)c1ccc(C#CC2CC2)cc1 (stereo in doubt) [Compound I-7],< 5 µM
2,Cc1cc(OCC2COCCO2)cc(=O)n1C(C)c1ccc(C#CC2CC2)cc1 (stereo not shown) [Compound I-1],< 5 µM
3,COc1cc(OCC2CCOCC2)cc(-c2ccc(-c3ccc(C)nc3)cc2C)n1 [Compound I-3],< 5 µM
4,C(#CC1CC1)c1ccc(-c2cncc(OCC3CCCCO3)c2)cc1 (stereo not shown) [Compound I-25],5 to 10 µM
5,CCn1c(-c2ccc(C#CC3CC3)cc2)cc(OCC2COCCO2)cc1=O (stereo not shown) [Compound I-26],10 to 15 µM
6,Cc1cc(OCC2COCCO2)cc(=O)n1Cc1ccc(C#CC2CC2)cc1 (stereo not shown) [Compound I-35],< 5 µM
7,COc1cc(OCC2COCCO2)cc(-c2ccc(-c3ccc(C)nc3)cc2C)n1 (stereo not shown) [Compound I-36],< 5 µM
8,COc1cc(OCC2COCCO2)cc(-c2ccc(OCc3ccccn3)cc2C)n1 (stereo not shown) [Compound I-37],< 5 µM
9,COc1cc(OCC2COCCO2)cc(-c2ccc(-c3ccc(C)nc3)cc2)n1 (stereo not shown) [Compound I-51],> 25 µM

# Same assay, conditions: compound tested at 10 μM (concentration code D)
row,SMILES,inhibition at 10 µM
1,Cc1cc(OC[C@H]2COCCO2)cc(=O)n1[C@H](C)c1ccc(C#CC2CC2)cc1 (stereo in doubt) [Compound I-7],> 75%
2,Cc1cc(OCC2CCOCC2)cc(=O)n1[C@H](C)c1ccc(C#CC2CC2)cc1 (stereo in doubt) [Compound I-20],50 to 75%
3,Cc1cc(OCC2CCOCC2)cc(=O)n1[C@H](C)c1ccc(C#CCO)cc1 (stereo in doubt) [Compound I-61],25 to 50%
4,COCC#Cc1ccc([C@@H](C)n2c(C)cc(OCC3CCOCC3)cc2=O)cc1 (stereo in doubt) [Compound I-83],< 25%
5,Cc1cc(OC[C@@H]2COCCO2)cc(=O)n1[C@@H](C)c1ccc(C#CC2CC2)cc1 (stereo in doubt) [Compound I-89],< 25%
6,Cc1cc(OC[C@@H]2CCCCO2)cc(=O)n1[C@H](C)c1ccc(C#CC2CC2)cc1 (stereo in doubt) [Compound I-144],> 75%
7,Cc1cc(OCC2COCCO2)cc(=O)n1[C@H](CO)c1ccc(C#CC2CC2)cc1 (stereo in doubt) [Compound I-147],25 to 50%
8,Cc1cc(OCC2CCOCC2)cc(=O)n1[C@H](C)c1ccc(N2CC(C)(C)C2)cc1 (stereo in doubt) [Compound I-148],25 to 50%
9,Cc1cc(OCc2ncccn2)cc(=O)n1[C@H](C)Cc1ccc(C#CC2CC2)cc1 (stereo in doubt) [Compound I-276],> 75%
10,Cc1cc(OCc2ncccn2)cc(=O)n1[C@@H](C)Cc1ccc(C#CC2CC2)cc1 (stereo in doubt) [Compound I-277],< 25%
11,Cc1cc(OCc2ncccn2)cc(=O)n1[C@H](C)Cc1cccc(C#CC2CC2)c1 (stereo in doubt) [Compound I-281],< 25%
12,Cc1cc(OCc2ncccn2)cc(=O)n1[C@@H](C)Cc1cccc(C#CC2CC2)c1 (stereo in doubt) [Compound I-282],< 25%
13,Cc1cc(OC[C@@H]2COCCO2)cc(=O)n1[C@H](C)c1ccc(C#CC2CC2)cc1 [Compound I-6],> 75%
14,CC(c1ccc(C#CC2CC2)cc1)n1ccc(OCC2COCCO2)cc1=O (stereo not shown) [Compound I-13],> 75%
15,Cc1cc(OCC2COCCO2)cc(=O)n1Cc1cccc(C#CCNc2ccccc2)c1 (stereo not shown) [Compound I-14],< 25%
16,CCC(c1ccc(C#CC2CC2)cc1)n1c(C)cc(OCC2COCCO2)cc1=O (stereo not shown) [Compound I-21],50 to 75%
17,Cc1nc(OCc2ccc(C#CC3CC3)cc2C)cc(OCC2COCCO2)n1 (stereo not shown) [Compound I-23],< 25%
18,Cc1cc(OC[C@H]2COCCO2)cc(=O)n1Cc1ccc(F)c(C#CC2CC2)c1 [Compound I-28],< 25%
19,Cc1cc(OCC(F)(F)F)ccc1-c1cncc(OC[C@H]2COCCO2)c1 [Compound I-32],25 to 50%
20,Cc1cc(C#CC2CC2)ccc1-c1cncc(OCC2COCCO2)c1 (stereo not shown) [Compound I-43],25 to 50%
21,Cc1cc(OC[C@H]2COCCO2)cc(=O)n1[C@@H](C)c1ccc(C#CC2CC2)cc1 [Compound I-44],25 to 50%
22,Cc1cc(OCc2ccccn2)ccc1-c1cc(OCC2COc3ncccc3O2)cc(=O)[nH]1 (stereo not shown) [Compound I-48],25 to 50%
23,Cc1c(C#CC2CC2)cccc1Cn1c(C)cc(OC[C@H]2COCCO2)cc1=O [Compound I-49],25 to 50%
24,CCc1cc(OCC2COCCO2)cc(=O)n1C(C)c1ccc(C#CC2CC2)cc1 (stereo not shown) [Compound I-50],25 to 50%

# Same assay, conditions: compound tested at 12.5 μM (concentration code E)
row,SMILES,inhibition at 12.5 µM
1,COc1cc(OCC2COCCO2)cc(-c2ccc(OCc3ccccn3)cc2)n1 (stereo not shown) [Compound I-15],< 25%
2,C(#CC1CC1)c1ccc(-c2cncc(OCC3CCCCO3)c2)cc1 (stereo not shown) [Compound I-25],50 to 75%
3,Cc1c(-c2ccc(OCC(F)(F)F)cc2)n(C)c(OCC2COCCO2)cc1=O (stereo not shown) [Compound I-52],25 to 50%

# Same assay, conditions: compound tested at 25 μM (concentration code G)
row,SMILES,inhibition at 25 µM
1,"O=c1ncc(-c2ccc(C#CC3CC3)cc2)cn1C[C@H]1CCCCO1 (stereo in doubt) [Compound I-80, 5-(4-(cyclopropylethynyl)phenyl)-1-((tetrahydro-2H-pyran-2-yl)methyl)pyrimidin-2(1H)-one]",< 25%
2,Cc1cc(OCC2COCCO2)cc(=O)n1C(C)c1ccc(C#CC2CC2)cc1 (stereo not shown) [Compound I-1],> 75%
3,O=c1cc(OCC2COCCO2)cc(-n2ccc(OCC(F)(F)F)cc2=O)[nH]1 (stereo not shown) [Compound I-5],< 25%
4,O=c1cc(OCC2COCCO2)cc(-c2ccc(C#CC3CC3)cc2)[nH]1 (stereo not shown) [Compound I-8],< 25%
5,CSc1nc(OCC2COCCO2)cc(-c2cnc(OCC(F)(F)F)cc2C)n1 (stereo not shown) [Compound I-9],< 25%
6,O=c1nc(OCC2COCCO2)cc(-c2ccc(OCC(F)(F)F)cc2)[nH]1 (stereo not shown) [Compound I-10],< 25%
7,O=c1cnn(CC2CCCCO2)c(-c2ccc(C#CC3CC3)cc2)c1 (stereo not shown) [Compound I-16],< 25%
8,COc1cc(OCC2CCCCO2)cc(-c2ccc(-c3ccc(C)nc3)cc2C)n1 (stereo not shown) [Compound I-19],50 to 75%
9,Cc1cc(C#CC2CC2)ccc1-c1cncc(OCC2CCCCO2)c1 (stereo not shown) [Compound I-24],50 to 75%
10,CCn1c(-c2ccc(C#CC3CC3)cc2)cc(OCC2COCCO2)cc1=O (stereo not shown) [Compound I-26],50 to 75%
11,Cn1c(-c2ccc(C#CC3CC3)cc2)nc(OCC2COCCO2)cc1=O (stereo not shown) [Compound I-27],25 to 50%
12,COc1nc(OCC2COCCO2)cc(-c2ccc(C#CC3CC3)cc2)n1 (stereo not shown) [Compound I-29],< 25%
13,Cc1cc(OCC(F)(F)F)ccc1-c1cccc(OCC2COCCO2)n1 (stereo not shown) [Compound I-33],25 to 50%
14,Cc1nc(OCC2COCCO2)cc(=O)n1Cc1ccc(C#CC2CC2)cc1 (stereo not shown) [Compound I-34],25 to 50%
15,Cc1cc(OCC2COCCO2)cc(=O)n1Cc1ccc(C#CC2CC2)cc1 (stereo not shown) [Compound I-35],25 to 50%
16,COc1cc(OCC2COCCO2)cc(-c2ccc(-c3ccc(C)nc3)cc2C)n1 (stereo not shown) [Compound I-36],25 to 50%
17,COc1cc(OCC2COCCO2)cc(-c2ccc(OCc3ccccn3)cc2C)n1 (stereo not shown) [Compound I-37],25 to 50%
18,Cc1cc(OCC2COCCO2)nc(=O)n1Cc1ccc(C#CC2CC2)cc1 (stereo not shown) [Compound I-38],25 to 50%
19,COc1cc(OC[C@H]2COCCO2)nc(-c2ccc(OCC(F)(F)F)cc2)c1C [Compound I-39],25 to 50%
20,COc1cc(OCC2COCCO2)cc(-c2ccc(C#CC3CC3)cc2)n1 (stereo not shown) [Compound I-40],< 25%
21,COc1nc(OCC2COCCO2)cc(-c2ccc(OCC(F)(F)F)cn2)n1 (stereo not shown) [Compound I-41],< 25%
22,COc1cc(OCC2CCCOC2)cc(-c2ccc(-c3ccc(C)nc3)cc2C)n1 (stereo not shown) [Compound I-45],25 to 50%
23,COc1cc(OCC2COCCO2)cc(-c2c(C)cc(OCc3ccccn3)cc2C)n1 (stereo not shown) [Compound I-46],25 to 50%
24,Cc1ccc(-c2ccc(-c3nc(OCC4COCCO4)cc(=O)n3C)cc2)cn1 (stereo not shown) [Compound I-47],25 to 50%
25,COc1cc(OCC2COCCO2)cc(-c2ccc(-c3ccc(C)nc3)cc2)n1 (stereo not shown) [Compound I-51],25 to 50%
26,FC(F)(F)COc1ccc(-c2cncc(OCC3COCCO3)c2)cc1 (stereo not shown) [Compound I-53],25 to 50%
27,C(#CC1CC1)c1ccc(-c2cc(OCC3CCCCO3)ncn2)cc1 (stereo not shown) [Compound I-54],< 25%
28,CC(C)c1cc(OCC2COCCO2)cc(OCc2ccc(C#CC3CC3)cc2)n1 (stereo not shown) [Compound I-55],< 25%
